Key:
breast cancer cell lines = experiment: breast tumor cell proliferation; assay type: cell-based
[1] = tested on: ER and Ki-67 levels in tumor specimens; experiment: Phase I clinical trial: tumor biopsies, ER and Ki-67 levels; design: species or system postmenopausal women; conditions: in vivo
From the text: Pre- and post-treatment tumor biopsies (soft tissue or visceral lesions) will be collected to evaluate: • Tumor Histology; tumor vs. stroma, vs fibrotic tissue • ERα and PR protein levels by immunohistochemistry or immunofluorescence • Proliferative Index (Ki67) • ER target gene modulation: Examples of ER target genes thay maybe monitored include, but are not limited to: AGR2, AREG, C3, CCND1, CXCL12, ERBB2, GREB1, IL6, IRS1, PDZK1, PGR, SEMA3B, TFF1, TFF2, TFF3, TOP2A, WISP2. Circulating Tumor DNA (ctDNA)
(§1) A preliminary analysis of the first 41 patients enrolled in the Phase I study described in Example 1 was conducted. 41 patients were enrolled in the Phase I portion of the study, across 9 different dose escalation cohorts. The patients were postmenopausal women with advanced or metastatic breast cancer that had previously relapsed or progressed following prior therapy with the aromatase inhibitors anastrozole, exemestane, and letrozole (90%), chemotherapy (68%), including capecitabine (27%), tamoxifen (54%), fulvestrant (41%), everolimus (19%), and also other investigational agents (17%).

[2] = tested on: xenograft models of ER+ breast cancer; experiment: tamoxifen-sensitive and tamoxifen-resistant xenograft models of ER+ breast cancer; assay type: in vivo
oral bioavailability = conditions: in vivo
[3] = design: species or system postmenopausal women; conditions: in vivo
Protocol: If the safety and PK profile seen in the Phase I (dose escalation) portion of the study are deemed favorable to justify further continuation of the study, dose escalation will be followed by an expansion cohort to further confirm safety and tolerability and assess preliminary evidence of antitumor activity (Phase IIa).
as §1

[4] = tested on: advanced or metastatic ER+ (HER2−) breast cancer; experiment: Phase I clinical trial: safety and clinical benefit; assay type: in vivo
From the text: The MTD and/or RP2D will be defined as the dose with ≤1 out of 6 patients with Dose Limiting Toxicity (DLT). Dose Limiting Toxicity (DLT) Definition: Any Grade ≥3 non-hematology toxicity (excluding alopecia); Any Grade ≥3 hematology toxicity >7 days; Any Grade toxicity that leads to study drug interruption >7 days.
Disease assessments will be performed. Imaging studies will include a CT scan of the chest, abdomen, and pelvis, plus a bone scan. Radiographic confirmation of objective tumor response or disease progression will be based on RECIST v1.1 (Eisenhauer, 2009). For new bone lesions detected on bone scans, a second imaging modality (e.g., CT or MRI) will be required to confirm progression.
as §1

With `CC/C(=C(/c1ccc(/C=C/C(=O)O)cc1)c1ccc2[nH]ncc2c1)c1ccc(F)cc1Cl` [(E)-3-(4-((E)-2-(2-chloro-4-fluorophenyl)-1-(1H-indazol-5-yl)but-1-en-1-yl)phenyl)acrylic acid] the “breast tumor cell proliferation” value (breast cancer cell lines) was “inhibition of breast tumor cell proliferation”, the “ER and Ki-67 levels in tumor specimens” value [1] was “reduced” and the tolerability ([2]; all doses, xenograft models) was “very well tolerated”. The efficacious dose range ([2]; all xenograft models) was 10 to 100 mg/kg/day, the anti-tumor activity ([2]; tamoxifen-sensitive and tamoxifen-resistant xenograft models) was “dose dependent anti-tumor activity” and the oral bioavailability (oral bioavailability) was “good oral bioavailability”. For the same compound, the “dose at which target plasma concentrations were achieved” value ([3]; female, human) was ≥ 600 mg QD, the pharmacokinetic profile ([3]; po) was “linear and dose proportional” and the safety and tolerability ([4]; 41 patients, progressed on a median of 4 prior treatments) was “safe and well tolerated”. For the same compound, the “preliminary overall clinical benefit rate” value ([4]; all patients, preliminary analysis) was 42% and the “preliminary clinical benefit rate” value ([4]; patients previously treated with fulvestrant) was 35%.
With `C[C@]12CC[C@@H]3c4ccc(O)cc4C[C@@H](CCCCCCCCC[S+]([O-])CCCC(F)(F)C(F)(F)F)[C@H]3[C@@H]1CC[C@@H]2O` (stereo partly drawn) [fulvestrant, reference compound] the “efficacy compared with the acrylic acid compound” value ([2]; tamoxifen-resistant xenograft models) was “less efficacious”.

Reference: patent US10034860B2, “Estrogen receptor modulator for the treatment of locally advanced or metastatic estrogen receptor positive breast cancer” (Genentech, Inc., priority 2013, dated 2018)
